# Assay results from paper PMC8286840, “Identifying SARS-CoV-2 antiviral compounds by screening for small molecule inhibitors of Nsp3 papain-like protease” (Biochemical Journal, 2021).
# Structures can show the parent of a compound that is named as a salt. Where two headings read alike, the source gives them in different places.
# Key:
# [1] = biological target: T1, SARS-CoV-2 PLpro (nsp3 1564–1878) (Severe acute respiratory syndrome coronavirus 2, UniProt P0DTD1); assay: biochemical; set-up: FRET-quenched peptide (Pro3) cleavage by PLpro, 10 min pre-incubation, slope over 20 min, normalised to no-compound control; conditions: low concentration screen, read-out: % of control remaining
# [2] = biological target: T1, SARS-CoV-2 PLpro (nsp3 1564–1878); assay: biochemical; set-up: FRET-quenched peptide (Pro3) cleavage by PLpro, 10 min pre-incubation, slope over 20 min, normalised to no-compound control; conditions: high concentration screen, read-out: % of control remaining
smiles,measurement,setting,value
OCCOCCN1CCN(C(c2ccccc2)c2ccc(Cl)cc2)CC1 (stereo not drawn) [Hydroxyzine 2HCl],remaining activity at 1.25 µM,[1]; Well no.=5082,98.5%
same,remaining activity at 3.75 µM,[2]; Well no.=5082,99.9%
CCn1cc(C(=O)O)c(=O)c2cc3c(cc21)OCO3 [Oxolinic acid],remaining activity at 1.25 µM,[1]; Well no.=1134,98.1%
same,remaining activity at 3.75 µM,[2]; Well no.=1134,98.5%
O=C(c1ccc(OCCN2CCCCC2)cc1)c1c(-c2ccc(O)cc2)sc2cc(O)ccc12 [Raloxifene],remaining activity at 1.25 µM,[1]; Well no.=1662,107%
same,remaining activity at 3.75 µM,[2]; Well no.=1662,108%
CC(C)=CCC[C@](C)(O)[C@H]1CC[C@]2(C)[C@@H]1[C@H](O)C[C@@H]1[C@@]3(C)CC[C@H](O)C(C)(C)[C@@H]3[C@@H](O)C[C@]12C [(20S)-Protopanaxatriol],remaining activity at 1.25 µM,[1]; Well no.=8387,96.6%
same,remaining activity at 3.75 µM,[2]; Well no.=8387,91.4%
COc1cnc(-n2cnc(C)n2)c2c1c(C(=O)C(=O)N1CCN(C(=O)c3ccccc3)CC1)cn2COP(=O)(O)O [Fostemsavir],remaining activity at 1.25 µM,[1]; Well no.=7748,101%
same,remaining activity at 3.75 µM,[2]; Well no.=7748,102%
NC(=O)NCCC[C@H](N)C(=O)O [L-Citrulline],remaining activity at 1.25 µM,[1]; Well no.=7159,108%
same,remaining activity at 3.75 µM,[2]; Well no.=7159,102%
Nc1nc2[nH]cc(CCc3ccc(C(=O)N[C@@H](CCC(=O)O)C(=O)O)cc3)c2c(=O)[nH]1 [Pemetrexed Disodium Hydrate],remaining activity at 1.25 µM,[1]; Well no.=8732,96.6%
same,remaining activity at 3.75 µM,[2]; Well no.=8732,97.8%
"Oc1ccc2ccccc2c1SSc1c(O)ccc2ccccc12 [p21-Activated Kinase Inhibitor III, IPA-3]",remaining activity at 1.25 µM,[1]; Well no.=2525,99.9%
same,remaining activity at 3.75 µM,[2]; Well no.=2525,102%
Clc1ccc2c(c1)C(N1CCNCC1)=Nc1ccccc1O2 [Amoxapine],remaining activity at 1.25 µM,[1]; Well no.=158,97.7%
same,remaining activity at 1.25 µM,[1]; Well no.=1690,102%
same,remaining activity at 3.75 µM,[2]; Well no.=158,97.1%
same,remaining activity at 3.75 µM,[2]; Well no.=1690,103%
NC(=O)c1ccc(CNC(=O)NC[C@H]2CN(Cc3ccc(Cl)c(Cl)c3)CCO2)cc1 [GW 766994],remaining activity at 1.25 µM,[1]; Well no.=8595,104%
same,remaining activity at 3.75 µM,[2]; Well no.=8595,103%
C[C@@H]1O[C@@]2(CS1)CN1CCC2CC1 [Cevimeline (hydrochloride hemihydrate)],remaining activity at 1.25 µM,[1]; Well no.=7571,91.5%
same,remaining activity at 3.75 µM,[2]; Well no.=7571,90.9%
O=C1CCc2ccc(OCCCCN3CCN(c4cccc(Cl)c4Cl)CC3)cc2N1 [Aripiprazole],remaining activity at 1.25 µM,[1]; Well no.=1844,93.9%
same,remaining activity at 1.25 µM,[1]; Well no.=8237,102%
same,remaining activity at 3.75 µM,[2]; Well no.=1844,95.9%
same,remaining activity at 3.75 µM,[2]; Well no.=8237,95.5%
CC(=O)N[C@@H](CS)C(=O)O [Acetylcysteine],remaining activity at 1.25 µM,[1]; Well no.=6161,102%
same,remaining activity at 1.25 µM,[1]; Well no.=8266,99.9%
same,remaining activity at 3.75 µM,[2]; Well no.=6161,103%
same,remaining activity at 3.75 µM,[2]; Well no.=8266,101%
N=C(N)c1ccc2nc(-c3cc(CC(=O)N[C@@H](CC(=O)O)C(=O)O)cc(-c4cc(S(N)(=O)=O)ccc4O)c3O)[nH]c2c1 [PCI-27483],remaining activity at 1.25 µM,[1]; Well no.=8564,104%
same,remaining activity at 3.75 µM,[2]; Well no.=8564,102%
CCCCCN(CCCOC)C(=O)C(CCC(=O)O)NC(=O)c1ccc(Cl)c(Cl)c1 (stereo not drawn) [Loxiglumide],remaining activity at 1.25 µM,[1]; Well no.=8483,94.1%
same,remaining activity at 3.75 µM,[2]; Well no.=8483,95%
Cc1nc2cc3nc(-c4cccs4)cnc3cc2n1C [AGL 2043],remaining activity at 1.25 µM,[1]; Well no.=2309,104%
same,remaining activity at 3.75 µM,[2]; Well no.=2309,103%
N[C@@H](Cc1ccc(O)c(O)c1)C(=O)O [Levodopa],remaining activity at 1.25 µM,[1]; Well no.=2264,93.8%
same,remaining activity at 3.75 µM,[2]; Well no.=2264,95.2%
"CN(C)c1ccnc2sc3c(=O)n(N4CCCCCC4)cnc3c12 [3-(1-azepanyl)-9-(dimethylamino)pyrido[3',2':4,5]thieno[3,2-d]pyrimidin-4(3H)-one]",remaining activity at 1.25 µM,[1]; Well no.=5949,92.3%
same,remaining activity at 3.75 µM,[2]; Well no.=5949,93.5%
O=C(N[C@H](CO)[C@H](O)c1ccc([N+](=O)[O-])cc1)C(Cl)Cl [Chloramphenicol],remaining activity at 1.25 µM,[1]; Well no.=2223,96.9%
same,remaining activity at 3.75 µM,[2]; Well no.=2223,96.6%
CC1(C)O[C@@H]2C[C@H]3[C@@H]4CCC5=CC(=O)C=C[C@]5(C)[C@H]4[C@@H](O)C[C@]3(C)[C@]2(C(=O)CO)O1 [Desonide],remaining activity at 1.25 µM,[1]; Well no.=5339,95.1%
same,remaining activity at 1.25 µM,[1]; Well no.=8291,99.7%
same,remaining activity at 3.75 µM,[2]; Well no.=5339,84.9%
same,remaining activity at 3.75 µM,[2]; Well no.=8291,96%
COc1ccc(CN(CCN(C)C)c2ccccn2)cc1 [Mepyramine maleate],remaining activity at 1.25 µM,[1]; Well no.=1843,98.2%
same,remaining activity at 3.75 µM,[2]; Well no.=1843,98.2%
C=CC(=O)N1CCC[C@@H](n2nc(-c3ccc(Oc4ccccc4)cc3)c3c(N)ncnc32)C1 [PCI-32765 (Ibrutinib)],remaining activity at 1.25 µM,[1]; Well no.=4649,96%
same,remaining activity at 3.75 µM,[2]; Well no.=4649,88.8%
CN1[C@@H]2CC[C@H]1C[C@@H](OC(c1ccccc1)c1ccccc1)C2 [Benztropine (mesylate)],remaining activity at 1.25 µM,[1]; Well no.=8235,100%
same,remaining activity at 3.75 µM,[2]; Well no.=8235,99.9%
CC[C@@H]1/C=C(\C)C[C@H](C)C[C@H](OC)[C@H]2O[C@@](O)(C(=O)C(=O)N3CCCC[C@H]3C(=O)O[C@H](/C(C)=C/[C@@H]3CC[C@H](Cl)[C@H](OC)C3)[C@H](C)[C@@H](O)CC1=O)[C@H](C)C[C@@H]2OC [Pimecrolimus],remaining activity at 1.25 µM,[1]; Well no.=8178,93.5%
same,remaining activity at 3.75 µM,[2]; Well no.=8178,91.3%
COC(=O)C(C)(N)Cc1ccc(O)cc1 (racemic) [alpha-Methyl-DL-tyrosine methyl ester hydrochloride],remaining activity at 1.25 µM,[1]; Well no.=1068,97%
same,remaining activity at 3.75 µM,[2]; Well no.=1068,96.5%
C[C@H](CCC(=O)NCC(=O)O)[C@H]1CC[C@H]2[C@@H]3[C@@H](O)C[C@@H]4C[C@H](O)CC[C@]4(C)[C@H]3CC[C@]12C [Glycoursodeoxycholic acid],remaining activity at 1.25 µM,[1]; Well no.=7311,108%
same,remaining activity at 3.75 µM,[2]; Well no.=7311,106%
O=C(O)C(=O)Cc1ccccc1 [2-Oxo-3-phenylpropanoic acid],remaining activity at 1.25 µM,[1]; Well no.=6877,109%
same,remaining activity at 3.75 µM,[2]; Well no.=6877,103%
O=C(N[C@@H]1CC[C@@H](c2cccc(F)c2F)CN(CC(F)(F)F)C1=O)N1CCC(n2c(=O)[nH]c3ncccc32)CC1 [MK-0974],remaining activity at 1.25 µM,[1]; Well no.=7709,102%
same,remaining activity at 3.75 µM,[2]; Well no.=7709,108%
CCCCC[C@H](O)CC(=O)CCc1ccc(O)c(OC)c1 [[6]-Gingerol],remaining activity at 1.25 µM,[1]; Well no.=6162,96.6%
same,remaining activity at 3.75 µM,[2]; Well no.=6162,99.6%
NCC(=O)O [Glycine],remaining activity at 1.25 µM,[1]; Well no.=7699,106%
same,remaining activity at 3.75 µM,[2]; Well no.=7699,108%
Cc1nccc2c1[nH]c1ccccc12 [Harmane],remaining activity at 1.25 µM,[1]; Well no.=612,98.8%
same,remaining activity at 1.25 µM,[1]; Well no.=3593,101%
same,remaining activity at 3.75 µM,[2]; Well no.=612,92%
same,remaining activity at 3.75 µM,[2]; Well no.=3593,102%
